# Measured values reported in patent publication US20090264383A1, “Inhibitor of Adenylyl Cyclase for Treating a Disorder of the Circadian Rhythm” (Medical Research Council, priority 2006, published 2009).
# “Also recorded” adds a separate entry of the source.
# Experiments:
# organotypic SCN slices = assay: Bioluminescence recording of circadian gene expression in organotypic SCN slices (mPer1::luc / PER2::LUC); type: cell-based, mice
# Experimental: (§1) Per1::luciferase and; Per2-luc transgenic mice were used. For organotypic slice culture, brains were removed from pups 5-10 days old and sectioned at 300 um with a McIlwain “Tissue Chopper.” Slices were sorted and trimmed to contain principally SCN tissue and placed onto a Millipore membrane insert (PICMORG) for culture at 37° C. in 5% CO2 as described previously (Gainer et al, 1998).
# Recordings of luciferase activity from organotypic slices of SCN or peripheral tissues were made from 5-7 day old pups from PER2::LUC and, Per1::LUC mice using either photomultiplier assemblies for whole tissue emission or CCD camera for single SCN cell imaging (Hamamatsu Photonics Ltd, U.K.) as described May Wood et al 2006 Curr. Biol. Vol. 16 pp 599-605. cAMP-ELISA kit was purchased from R&D systems (Wiesbaden, Germany). NIH 3T3 cells were cultured as described (Kume et al 1999 Cell Vol 98 pp 193-205) and transfected using Genejuice (Novagen, San Diego, Calif.). […] Drugs were solubilized in medium or dimethylsulfoxide (DMSO) to make stock solutions 50-1000× the working solutions. [DMSO] was never greater than 0.4%. RNA-interference against Epac1 and Epac 2 used pre-validated sequences as instructed (Validated Stealth RNAi, Invitrogen, CA). Western Blots were performed as Reddy et al (2006 Curr. Biol. Vol 16 oo 1107-15). Behavioural rhythms, recorded by running wheel and passive infra-red movement detectors, were analysed in Clocklab (Actimetrics, Evanston Ill.). Central cannulae directed stereotaxically at the SCN and sub-cutaneous minipumps (Alzet® model 1002 pump and brain infusion kit II) for drug infusion were fitted as instructed (Durect Corp. Cupertino, Calif.).
# Statistical analysis was performed using Prism GraphPad™ and Statview™. Periods were calculated over ≧3 days recoding For comparative purposes, transcriptional amplitude from PMT recordings was calculated as 100× (post-treatment emission peak-trough/pre-treatment peak-trough). In all cases error bars indicate SEM about the mean where n≧3.
# Water solubility = type: physicochemical
# [1] = compared with THFA; cited from earlier work
# [2] = tested on: Slices/3T3 cells/other tissues; settings: 10 mM LiCl2 (slices); 2 mM THFA (slices/3T3 cells/other tissues)
# Experimental: as §1
# inositol monophosphatase = molecular target: T1, inositol monophosphatase (Homo sapiens, UniProt P29218); settings: cited from earlier work
# T1 sequence (P29218 1-277): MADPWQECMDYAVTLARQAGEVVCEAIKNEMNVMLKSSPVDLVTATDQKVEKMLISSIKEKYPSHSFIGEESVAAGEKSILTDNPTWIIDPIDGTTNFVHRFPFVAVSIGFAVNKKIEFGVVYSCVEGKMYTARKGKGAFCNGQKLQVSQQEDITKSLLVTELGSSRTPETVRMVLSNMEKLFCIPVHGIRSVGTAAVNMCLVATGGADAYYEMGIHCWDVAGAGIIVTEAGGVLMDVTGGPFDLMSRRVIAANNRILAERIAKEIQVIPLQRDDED
# [3] = molecular target: T2, inositol polyphosphate 1-phosphatase (Homo sapiens, UniProt P49441); settings: cited from earlier work
# T2 sequence (P49441 1-399): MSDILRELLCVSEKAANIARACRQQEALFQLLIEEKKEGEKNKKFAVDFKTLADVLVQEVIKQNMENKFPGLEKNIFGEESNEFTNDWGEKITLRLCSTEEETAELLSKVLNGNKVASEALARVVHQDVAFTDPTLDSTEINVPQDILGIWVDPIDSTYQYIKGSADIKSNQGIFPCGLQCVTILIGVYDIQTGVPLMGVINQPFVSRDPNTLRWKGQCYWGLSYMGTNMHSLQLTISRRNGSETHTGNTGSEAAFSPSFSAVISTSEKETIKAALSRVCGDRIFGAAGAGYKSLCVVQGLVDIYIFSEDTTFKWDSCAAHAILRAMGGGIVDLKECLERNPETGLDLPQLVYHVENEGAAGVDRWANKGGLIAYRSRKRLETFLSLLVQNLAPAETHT
# [4] = molecular target: T3, bisphosphate nucleotidase (Homo sapiens, UniProt O95861); settings: cited from earlier work
# T3 sequence (O95861 1-308): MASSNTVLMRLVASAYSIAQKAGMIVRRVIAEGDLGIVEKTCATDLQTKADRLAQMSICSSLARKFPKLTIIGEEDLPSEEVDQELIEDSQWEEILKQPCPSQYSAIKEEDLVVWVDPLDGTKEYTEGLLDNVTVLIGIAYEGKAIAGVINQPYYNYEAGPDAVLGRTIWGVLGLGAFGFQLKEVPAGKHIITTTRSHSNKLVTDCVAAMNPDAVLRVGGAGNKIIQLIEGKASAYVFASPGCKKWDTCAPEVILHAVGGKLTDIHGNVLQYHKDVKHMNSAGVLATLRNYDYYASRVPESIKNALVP
# [5] = 1 mM lithium final concentration in human serum; cited from earlier work
SMILES,effect on circadian period (organotypic SCN slices; wild-type mPer1::luc / PER2::LUC SCN slices),water solubility (Water solubility),"solubility (Water solubility; water, read-out: water soluble up to)",metabolic and chemical stability [1],increase in SCN period in vitro (organotypic SCN slices; 10 mM lithium),"circadian period (organotypic SCN slices; lithium treatment, organotypic slices, concentration not given)","increase in circadian period (organotypic SCN slices; lithium, organotypic tissue extracts)",circadian period (organotypic SCN slices; slices in 10 mM lithium),appearance of slices / cells / tissues [2],EC50 (inositol monophosphatase),EC50 [3],EC50 [4],toxicity [5]
"Nc1ncnc2c1ncn2C1CCCC1 [9-(cyclopentyl)-adenine, 9-(Cyclopentyl)-adenine]",Reversible period lengthening; also recorded: Period was lengthened,water soluble,≥ 125 mM,greater metabolic and chemical stability than THFA,–,–,–,–,–,–,–,–,–
[Li] [Lithium],–,–,–,–,2 to 3 h,approximately 26 hours,~2 h,26 h,appear perfectly healthy,< 2000 µM,< 2000 µM,< 2000 µM,non-toxic
